# Results reported in ChEMBL document CHEMBL5143533, “Development of isoquinolinone derivatives as immunoproteasome inhibitors” (Bioorg Med Chem Lett, 2022).
# Where a SMILES comes first, the peptide text is derived from it. The star is where a group is joined. Cbz = O=C(OCc1ccccc1)*
# Legend:
# [1] = target: T1, Proteasome Macropain subunit MB1 (Homo sapiens, UniProt P28074); experiment: Inhibition of 20S constitutive proteosome beta5c subunit (unknown origin) assessed as substrate hydrolysis using Suc-Leu-Leu-Val-Tyr-AMC as fluorogenic substrate at 100 uM
# T1 sequence (P28074 whole entry): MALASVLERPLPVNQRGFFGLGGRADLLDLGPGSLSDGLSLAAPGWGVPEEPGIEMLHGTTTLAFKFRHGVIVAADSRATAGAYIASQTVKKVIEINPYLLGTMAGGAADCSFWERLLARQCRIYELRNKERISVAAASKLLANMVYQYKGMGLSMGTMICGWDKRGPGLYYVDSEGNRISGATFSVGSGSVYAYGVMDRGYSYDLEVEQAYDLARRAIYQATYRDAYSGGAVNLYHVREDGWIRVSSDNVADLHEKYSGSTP
# [2] = Inhibition of 20S immuno proteosome beta5i subunit (unknown origin) assessed as substrate hydrolysis using Suc-Leu-Leu-Val-Tyr-AMC as fluorogenic substrate at 100 uM; design: species or system Homo sapiens
# Homo sapiens = species: Homo sapiens; experiment: Reversible inhibition of 20S immuno proteosome beta 5i subunit (unknown origin) assessed as substrate hydrolysis using Suc-Leu-Leu-Val-Tyr-AMC as substrate at 0.25 to 25 uM by fluorescence based assay; conditions: dose 0.25-25 µM, time <= 600.0 sec, TDE = time-dependent effect
# [3] = Cytotoxicity against human MM1.R cells assessed as reduction in cell vitality incubated for 24 hrs by MTT assay; format: functional, cell-based; conditions: MM.1R
# [4] = Inhibition of 20S immuno proteosome beta5i subunit (unknown origin) assessed as substrate hydrolysis using Z-Leu-Leu-Leu-al as substrate; design: species or system Homo sapiens
Compound,Ki [1] [µM],Ki [2] [µM],inhibition (Homo sapiens),EC50 [3] [µM],Ki [4] [µM]
COc1cc2ccn(C/C=C/C(=O)Nc3ccccc3)c(=O)c2cc1OC,49,50,,,
COc1cc2ccn(C/C=C/C(=O)NCCC(C)C)c(=O)c2cc1OC,1.18,1.91,Tde,,
COc1cc2ccn(C/C=C/C(=O)NC3CCCCC3)c(=O)c2cc1OC,23,55,,,
COc1cc2ccn(C/C=C/C(=O)NCc3ccccc3)c(=O)c2cc1OC,,65,,,
CCCCNC(=O)/C=C/Cn1ccc2cc(OC)c(OC)cc2c1=O,19,49,,,
COc1cc2ccn(C/C=C/C(=O)NCCc3ccccc3)c(=O)c2cc1OC,60,45,,,
CC(C)CCNC(=O)Cn1ccc2ccc(Br)cc2c1=O,,,,17.8,
COc1cc2ccn(C/C=C/C(=O)NCCCc3ccccc3)c(=O)c2cc1OC,10.6,64,,,
CC(C)C[C@@H](C=O)NC(=O)[C@H](CC(C)C)NC(=O)[C@H](CC(C)C)NC(=O)OCc1ccccc1 [MG-132] (Cbz-Leu-Leu-Leu-aldehyde),,,,,0.07
